Data as given in patent publication US8088918B2, “Noncardiotoxic pharmaceutical compounds” (Williamsburg Holdings LLC, priority 2004, dated 2012).

How the values were obtained:
[1] = Stability testing of prodrugs in rat plasma (elevated esterase activity); assay type: in vitro ADME, Sprague-Dawley rat; conditions: 10 μM, ca. 37° C.
Method: (§1) Sprague-Dawley rat plasma was obtained by collection into sodium EDTA as the anticoagulant, and was stored at ca −20° C. prior to use. Prior to use, the plasma defrosted and was spun at ca. 3000 rpm for 5 minutes to remove any precipitate. The pH of the plasma was adjusted to pH 7.4 by careful addition of NaH2PO4 buffer.
(§2) Plasma stability was assessed by incubation of 10 μM of each compound prepared in Examples 1-5 with rat plasma, in duplicate, at ca. 37° C. with shaking. Each compound prepared in Examples 1-5 was also incubated at 10 μM in PBS as a control for compound heat stability. Aliquots were removed at 0, 0.5, 1 and 2 hours and stored at −20° C. until analysis.
(§3) For analysis, plasma samples were extracted in 1 part acetonitrile and isolation of the supernatant. Analysis of each compound prepared in Examples 1-5 in plasma extracts was conducted by an LC-MS method at each time interval and quantification was achieved by comparison of the response due to the sample to that of a three point standard curve. Appearance of the parent drug and the hydroxymetabolites were also monitored at each time interval. The % degradation following incubation at each time point was calculated by comparison of the parent concentration to that at 0 minutes.

[2] = Stability testing in simulated intestinal fluids; conditions: 10 μM
[3] = Stability testing of prodrugs in human plasma; assay type: in vitro ADME; conditions: 10 μM, ca. 37° C.
Method: as §1, with “Pooled human” for “Sprague-Dawley rat”, “obtained from Bioreclamation (East Meadow, N.Y.)” for “obtained”
as §2, with “human” for “rat”
as §3, with “drug” for “drug and”

CYP2D6 = CYP2D6 (Homo sapiens, UniProt P10635); assay: Metabolic stability in the presence of CYP2D6 isozyme; assay type: in vitro ADME; set-up: purchased BD Gentest (Woburn, Mass.); conditions: 10 μm compound
Method: (§4) The metabolic stability of each compound prepared in Examples 1-5 was assessed in the presence of CYP2D6 and CYP3A4 obtained from BD Gentest (Woburn, Mass.).
(§5) The metabolic stability of each compound prepared in Examples 1-5 was assessed in duplicate by incubation of 10 μm compound with recombinant human CYP2D6 and 3A4 using similar conditions to those in Example 9. Samples were removed for analysis at 0, 30 and 60 minutes and extracted with one volume of organic solvent. Appropriate controls were included. Quantification of the disappearance of the prodrug was conducted LC-MS. Appearance of metabolites was also monitored.

[4] = Metabolic stability, microsomal incubations with ketoconazole (CYP3A4 inhibitor); assay type: in vitro ADME; conditions: 10 μM, 0.5 mg/mL microsomal protein
Method: (§6) The metabolic stability of each compound prepared in Examples 1-5 was assessed in microsomal preparations obtained from BD Gentest (Woburn, Mass.).
(§7) The metabolic stability of each compound prepared in Examples 1-5 was assessed in duplicate by incubation of 10 μM compound with 0.5 mg/mL microsomal protein, 1 mM in 0.1 M phosphate buffer, pH 7.4 in the presence and absence of a CYP3A4 inhibitor (ketoconazole). The reaction mixture was pre-incubated, in the absence of the microsomes, at ca. 37° C. for 5 minutes, followed by initiation of the incubation by the addition of microsomal protein and maintained at ca. 37° C. for a further 0, 30 and 60 minutes. After the appropriate incubation time, the mixtures were quenched by the addition of one volume of acetonitrile and the supernatant was isolated by centrifugation. Positive control incubations (7-ethoxycoumarin) were performed in the same manner as the compounds from Examples 1-5 and quenched after 0 and 30 minutes. In addition, negative control incubations were performed for 60 minutes in the absence of NADPH to assess chemical stability.
(§8) Analysis of supernatants from each time interval was conducted for each compound prepared in Examples 1-5 by LC-MS analysis. Quantification of the disappearance on the parent drug was achieved by comparison of the sample response to that of a suitable standard curve constructed in 0.1 M phosphate buffer, pH 7.4. The standard curve ranged between ≦1% up to ≧100% of the dosing concentration.
(§9) The % turnover following 60 minutes of incubation was calculated by comparison of the parent concentration to that at 0 minutes. The % degradation was calculated in the same manner from the negative control incubations. Appearance of the parent drug and the hydroxymetabolites were also monitored at each time interval.

[5] = Metabolic stability, microsomal incubations without inhibitor; assay type: in vitro ADME; conditions: 10 μM, 0.5 mg/mL microsomal protein
Method: as §6, §7, §8, §9

[6] = Stability testing in simulated gastric fluids; conditions: 10 μM, saline pH approximately 1 plus pepsin
recombinant human CYP3A4 = biological target: T1, recombinant human CYP3A4 (Homo sapiens, UniProt P08684); assay: Metabolic stability in the presence of CYP3A4 isozyme; assay type: in vitro ADME; conditions: 10 μm compound
T1 construct: purchased BD Gentest (Woburn, Mass.)
Method: as §4, §5

[7] = phosphate pH 6, incubation time 0 min
[8] = phosphate pH 6, incubation time 30 min
[9] = phosphate pH 6, incubation time 60 min
[10] = phosphate pH 6, incubation time 120 min

Chain of CYP2D6 (P10635 whole entry): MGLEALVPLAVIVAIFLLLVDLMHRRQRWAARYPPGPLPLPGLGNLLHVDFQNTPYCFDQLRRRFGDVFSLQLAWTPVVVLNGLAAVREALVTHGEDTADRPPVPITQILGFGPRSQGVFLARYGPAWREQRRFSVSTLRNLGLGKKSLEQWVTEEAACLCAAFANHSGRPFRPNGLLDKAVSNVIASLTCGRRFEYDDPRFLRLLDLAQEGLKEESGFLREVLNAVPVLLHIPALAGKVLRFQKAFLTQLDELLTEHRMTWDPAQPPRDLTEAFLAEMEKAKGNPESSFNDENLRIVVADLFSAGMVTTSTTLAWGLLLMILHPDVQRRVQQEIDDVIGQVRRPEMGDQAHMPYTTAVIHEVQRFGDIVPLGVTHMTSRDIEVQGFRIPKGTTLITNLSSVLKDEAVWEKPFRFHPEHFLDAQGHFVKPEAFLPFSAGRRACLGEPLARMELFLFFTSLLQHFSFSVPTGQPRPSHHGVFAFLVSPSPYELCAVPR
T1 sequence (P08684 whole entry): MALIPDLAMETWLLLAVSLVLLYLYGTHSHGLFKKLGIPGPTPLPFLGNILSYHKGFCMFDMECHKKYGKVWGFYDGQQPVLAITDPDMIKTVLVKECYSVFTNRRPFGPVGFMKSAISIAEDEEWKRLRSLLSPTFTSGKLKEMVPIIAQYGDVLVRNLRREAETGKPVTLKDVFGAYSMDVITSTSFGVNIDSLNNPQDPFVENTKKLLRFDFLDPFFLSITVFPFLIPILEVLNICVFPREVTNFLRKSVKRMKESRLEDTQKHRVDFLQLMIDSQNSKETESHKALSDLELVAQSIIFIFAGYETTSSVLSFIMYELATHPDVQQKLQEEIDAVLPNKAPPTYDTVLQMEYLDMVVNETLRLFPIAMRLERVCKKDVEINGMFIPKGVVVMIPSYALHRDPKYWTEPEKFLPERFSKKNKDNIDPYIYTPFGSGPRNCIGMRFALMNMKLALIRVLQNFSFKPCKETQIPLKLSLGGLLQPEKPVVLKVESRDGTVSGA

Loss of parent compound in rat plasma (%) ([1]; incubation time 0 min)	Loss of parent compound in rat plasma (%) ([1]; incubation time 30 min)	Loss of parent compound in rat plasma (%) ([1]; incubation time 60 min)	Loss of parent compound in rat plasma (%) ([1]; incubation time 120 min)	Loss of parent compound in simulated intestinal fluid (%) [2, 7] [%]	Loss of parent compound in simulated intestinal fluid (%) [2, 8] [%]	Loss of parent compound in simulated intestinal fluid (%) [2, 9] [%]	Loss of parent compound in simulated intestinal fluid (%) [2, 10] [%]	Loss of parent compound in human plasma (%) ([3]; incubation time 0 min)	Loss of parent compound in human plasma (%) ([3]; incubation time 30 min)	Loss of parent compound in human plasma (%) ([3]; incubation time 60 min)	Loss of parent compound in human plasma (%) ([3]; incubation time 120 min)	Loss of parent compound with CYP2D6 isozyme (%) (CYP2D6; incubation time 0 min)	Loss of parent compound with CYP2D6 isozyme (%) (CYP2D6; incubation time 30 min)	Loss of parent compound with ketoconazole (%) ([4]; incubation time 30 min)	Loss of parent compound with ketoconazole (%) ([4]; incubation time 60 min)	Loss of parent compound with no ketoconazole (%) ([5]; incubation time 30 min)	Loss of parent compound with no ketoconazole (%) ([5]; incubation time 60 min)	Loss of parent compound in simulated gastric fluid (%) ([6]; incubation time 0 min)	Loss of parent compound in simulated gastric fluid (%) ([6]; incubation time 30 min)	SMILES	further results
0.00	−8.16	41.70	73.48	0.00	7.73	−8.72	4.23	0.00	−32.74%	−1.44	49.54	0.00	18.68	15.18	55.88	59.12	74.17	0.00	13.84	CCCCCCCCOC(=O)N(C)CCCN1c2ccccc2CCc2ccccc21 [RIC-5d, [3-(10,11-Dihydro-dibenzo[b,f]azepin-5-yl)-propyl]-methyl-carbamic acid octyl ester]	Loss of parent compound with CYP3A4 isozyme (%) (recombinant human CYP3A4; incubation time 0 min): 0.00%; Loss of parent compound with CYP3A4 isozyme (%) (recombinant human CYP3A4; incubation time 30 min): 33.66%; Loss of parent compound with CYP3A4 isozyme (%) (recombinant human CYP3A4; incubation time 60 min): 60.64%
0.00	7.17	8.34	23.42	0.00	6.73	13.57	25.61	0.00	7.15%	6.85	21.06	0.00	19.21	31.69	50.21	64.76	82.29	0.00	58.72	CCCOC(=O)N(C)CCCN1c2ccccc2CCc2ccccc21 [RIC-5b, [3-(10,11-Dihydro-dibenzo[b,f]azepin-5-yl)-propyl]-methyl-carbamic acid propyl ester]	Loss of parent compound with CYP2D6 isozyme (%) (CYP2D6; incubation time 60 min): 28.01%; Loss of parent compound in simulated gastric fluid (%) ([6]; incubation time 60 min): 26.67%; Loss of parent compound in simulated gastric fluid (%) ([6]; incubation time 120 min): 94.37%; Loss of parent compound with CYP3A4 isozyme (%) (recombinant human CYP3A4; incubation time 0 min): 0.00%; Loss of parent compound with CYP3A4 isozyme (%) (recombinant human CYP3A4; incubation time 30 min): 92.32%; Loss of parent compound with CYP3A4 isozyme (%) (recombinant human CYP3A4; incubation time 60 min): 95.20%
0.00	8.81	23.43	45.85	0.00	16.75	22.88	35.18	0.00	5.47%	15.80	26.22	0.00	73.91	27.65	62.37	70.94	87.25	0.00	13.93	COC(=O)N(C)CCCN1c2ccccc2CCc2ccccc21 [RIC-5a, [3-(10,11-Dihydro-dibenzo[b,f]azepin-5-yl)-propyl]-methyl-carbamic acid methyl ester]	Loss of parent compound with CYP2D6 isozyme (%) (CYP2D6; incubation time 60 min): 83.13%; Loss of parent compound in simulated gastric fluid (%) ([6]; incubation time 60 min): 31.78%; Loss of parent compound in simulated gastric fluid (%) ([6]; incubation time 120 min): 81.43%; Loss of parent compound with CYP3A4 isozyme (%) (recombinant human CYP3A4; incubation time 0 min): 0.00%; Loss of parent compound with CYP3A4 isozyme (%) (recombinant human CYP3A4; incubation time 30 min): 91.32%; Loss of parent compound with CYP3A4 isozyme (%) (recombinant human CYP3A4; incubation time 60 min): 97.96%

SMILES	Loss of parent compound in rat plasma (%) ([1]; incubation time 0 min)	Loss of parent compound in rat plasma (%) ([1]; incubation time 30 min)	Loss of parent compound in rat plasma (%) ([1]; incubation time 60 min)	Loss of parent compound in rat plasma (%) ([1]; incubation time 120 min)	Loss of parent compound in simulated intestinal fluid (%) [2, 7] [%]	Loss of parent compound in simulated intestinal fluid (%) [2, 8] [%]	Loss of parent compound in simulated intestinal fluid (%) [2, 9] [%]	Loss of parent compound in simulated intestinal fluid (%) [2, 10] [%]	Loss of parent compound in human plasma (%) ([3]; incubation time 0 min)	Loss of parent compound in human plasma (%) ([3]; incubation time 30 min)	Loss of parent compound in human plasma (%) ([3]; incubation time 60 min)	Loss of parent compound in human plasma (%) ([3]; incubation time 120 min)	Loss of parent compound with CYP2D6 isozyme (%) (CYP2D6; incubation time 0 min)	Loss of parent compound with CYP2D6 isozyme (%) (CYP2D6; incubation time 30 min)	Loss of parent compound with ketoconazole (%) ([4]; incubation time 30 min)	Loss of parent compound with ketoconazole (%) ([4]; incubation time 60 min)	Loss of parent compound with no ketoconazole (%) ([5]; incubation time 30 min)	Loss of parent compound with no ketoconazole (%) ([5]; incubation time 60 min)	Loss of parent compound in simulated gastric fluid (%) ([6]; incubation time 0 min)	Loss of parent compound in simulated gastric fluid (%) ([6]; incubation time 30 min)	further results
CCOP(=O)(OCC)N(C)CCCN1c2ccccc2CCc2ccccc21 [RIC-02, [3-(10,11-Dihydro-dibenzo[b,f]azepin-5-yl)-propyl]-methyl-phosphoramidic acid diethyl ester]	0.00	4.67	11.01	9.02	0.00	11.65	7.83	9.29	0.00	−.43%	9.94	7.93	0.00	13.19	−17.26	11.04	76.17	91.40	0.00	49.94	Loss of parent compound with CYP2D6 isozyme (%) (CYP2D6; incubation time 60 min): 37.11%; Loss of parent compound in simulated gastric fluid (%) ([6]; incubation time 60 min): 74.67%; Loss of parent compound in simulated gastric fluid (%) ([6]; incubation time 120 min): 93.12%; Loss of parent compound with CYP3A4 isozyme (%) (recombinant human CYP3A4; incubation time 0 min): 0.00%; Loss of parent compound with CYP3A4 isozyme (%) (recombinant human CYP3A4; incubation time 30 min): 97.05%; Loss of parent compound with CYP3A4 isozyme (%) (recombinant human CYP3A4; incubation time 60 min): 98.62%
